{"source": "patent US20060241108A1", "about": "“Substituted phenoxazines and acridones as inhibitors of AKT” (St. Jude Children's Research Hospital, priority 2005, published 2006)", "assay_type_in_all_cases": "cell-based, human", "key": {"Rh30 cells": {"test_system": "Rh30 cells", "assay": "Cell growth inhibition, Rh30 cells", "conditions": "complete medium, six days, nuclei counted", "protocol": "(§1) Cell lines and growth conditions. The human cell lines Rh1, Rh18, and Rh30 (ATCC Deposit # CRL 2061) have been described, e.g., by Hazelton et al. Cancer Res 1987;47:4501-4507 and Hosoi et al. Cancer Res. 1999;59:886-894. Rh1, Rh18 and Rh30 cells can each be grown in antibiotic free RPMI-1640 medium (available from BioWhittaker, Walkersville, Md.), supplemented with 10% fetal bovine serum (available from HyClone Laboratories, Logan, Utah) and 2 mM L-glutamine (available from BioWhittaker, Walkersville, Md.) at 37° C. in an atmosphere of 5% CO2. For serum free experiments, cells can be cultured in modified N2E (MN2E) medium (DMEM/F-12, 1:1 mixture) (Sigma, St. Louis, Mo.) supplemented with 1 μg/ml human holo transferrin, 30 nM sodium selenite, 20 nM progesterone, 100 μM putrescine, 30 nM vitamin E phosphate, and 50 μM ethanolamine. […]\n(§2) Cell growth inhibition. […] Growth can be assessed after lysing cells, and counting nuclei. […]\n(§3) The effect(s) of compounds, including phenoxazine compounds such as those listed in Table I, above, on cell growth can be evaluated in cell-based assays such as the exemplary assays described here. Rh1, Rh18 and/or Rh30 cells grown in complete medium can be exposed to graded concentrations of test compound (e.g., from 0.1 to 25 μM) for six days, at which time the cells can be lysed and their growth assessed by counting nuclei. […]"}, "Rh1 cells": {"test_system": "Rh1 cells", "assay": "Cell growth inhibition, Rh1 cells", "conditions": "complete medium, six days, nuclei counted", "protocol": "as §1, §2, §3"}, "AKT": {"test_system": "AKT", "assay": "Inhibition of IGF-I stimulated AKT phosphorylation (Ser473) in Rh1 cells, Western blot", "conditions": "for inhibition of AKT phosphorylation: 2.5 μM, Rh1 cells serum free, IGF-I; for Inhibition (phosphorylation of AKT at Ser 473): 5 μM, 1 hour, serum starved Rh1 cells, IGF-I 10 ng/ml 10 minutes, average of two experiments", "protocol": "Cell lines and growth conditions. The human cell lines Rh1, Rh18, and Rh30 (ATCC Deposit # CRL 2061) have been described, e.g., by Hazelton et al. Cancer Res 1987;47:4501-4507 and Hosoi et al. Cancer Res. 1999;59:886-894. Rh1, Rh18 and Rh30 cells can each be grown in antibiotic free RPMI-1640 medium (available from BioWhittaker, Walkersville, Md.), supplemented with 10% fetal bovine serum (available from HyClone Laboratories, Logan, Utah) and 2 mM L-glutamine (available from BioWhittaker, Walkersville, Md.) at 37° C. in an atmosphere of 5% CO2. For serum free experiments, cells can be cultured in modified N2E (MN2E) medium (DMEM/F-12, 1:1 mixture) (Sigma, St. Louis, Mo.) supplemented with 1 μg/ml human holo transferrin, 30 nM sodium selenite, 20 nM progesterone, 100 μM putrescine, 30 nM vitamin E phosphate, and 50 μM ethanolamine. Cells in MN2E medium containing 5 μg/ml bovine fibronectin (available from Sigma, St. Louis, Mo.) are preferably plated, and allowed to attach overnight at 37° C. in a humidified, 5% CO2 atmosphere.\nCellular screening for inhibitors. Rh1, Rh18 and Rh30 cells can each be seeded at a density of 4×10^6/10-cm plate in serum-free medium for overnight attachment. The cells can then be exposed to 0.1% DMSO or to a test compound (for example, a phenoxazine or acridone compound) for one hour, then stimulated with Insulin-like growth factor-I (IGF-I) (10 ng/ml) for 10 minutes.\nWestern blot analysis. Cells are rapidly washed with ice-cold phosphate-buffered saline (PBS), placed on ice, and lysed in mammalian protein extraction reagent (M-PER; available from Pierce, Rockford, Ill.) containing one Complete™ mini protease inhibitor tablet (available from Boehringer Mannheim, Mannheim, Germany), 1 mM phenylmethylsulfonyl fluoride, 1 mM Na3VO4 and 1 mM NaF. Cellular debris is pelleted by centrifugation at 17,500×g for 10 minutes at 4° C. The protein concentration of the supernatants is measured by the bicinchoninic acid assay (e.g., using the BCA™ Protein Assay Kit, Pierce, Rockford, Ill., catalog number 23225 or 23227) using bovine serum albumin as the standard.\nFor the analysis of AKT, ERK-1/2, mTOR, p70S6 kinase, ribosomal protein S6 (rpS6 or S6), and glycogen synthase kinase 3 (GSK-3), equivalent amounts of protein can be separated on a 12% SDS-polyacrylamide gel (available from BioRad, Hercules, Calif.) by electrophoresis and subsequently transferred to a nitrocellulose membrane (also available from BioRad). After a 1 hour incubation in 1×TBS containing 0.05% Tween 20 and 5% blocking reagent (skim milk) (available from Upstate Biotechnology, Lake Placid, N.Y.) at room temperature, the wet nitrocellulose membranes are incubated with appropriate antibodies (available from Cell Signaling Technology, Beverly, Mass.): rabbit polyclonal antiserum specific for the phosphorylated Ser473 or Thr308 of AKT (dilution 1:1000); rabbit polyclonal antiserum specific for phosphorylated Thr202/Tyr204 of ERK-1/2 (dilution 1:1000); rabbit polyclonal antiserum specific for phosphorylated Ser2448 or Ser2481 of mTOR (dilution 1:1000); rabbit polyclonal antiserum specific for phosphorylated Thr389 of p70S6 kinase (dilution 1:4000); rabbit polyclonal antiserum specific for phosphorylated Ser235/236 of rpS6 (dilution 1:1000); or rabbit polyclonal antiserum specific for phosphorylated Ser21/9 of GSK-3α/β (dilution 1:1000). Horseradish peroxidase-conjugated goat anti-rabbit IgG antibody (dilution 1:10,000) can be used as the secondary antibody. Immunoreactive protein can be visualized using Renaissance chemiluminescence reagent (available from Life Science Products Inc., Boston, Mass.).\nFor these assays, Rh1 cells are seeded in serum-free medium for overnight attachment. The serum starved Rh1 cells are then exposed to 1-5 μM of a compound in Table I for 1 hour before stimulating with IGF-I (10 ng/ml) for 10 minutes. […]"}}, "note": "pIC50: −log10 of the molar value.", "data": [{"compound": "10-[4′-[(β-hydroxyethyl)piperazino]butyl]-2-chlorophenoxazine [Compound 15B]", "values": [{"measurement": "pIC50", "setting": "Rh30 cells", "result": 5.22}, {"measurement": "pIC50", "setting": "Rh1 cells", "result": 5.70}, {"measurement": "inhibition of AKT phosphorylation", "setting": "AKT", "result": "complete inhibition"}, {"measurement": "Inhibition (phosphorylation of AKT at Ser 473)", "setting": "AKT", "result": "++++ (++++ ≈ 100% inhibition)"}]}, {"compound": "CCN(CC)CCCCN1c2ccccc2Oc2ccc(Cl)cc21", "note": "[Compound 10B, 10-[4′-(N-diethylamino)butyl]-2-chlorophenoxazine]", "values": [{"measurement": "pIC50", "setting": "Rh30 cells", "result": 5.22}, {"measurement": "pIC50", "setting": "Rh1 cells", "result": 5.70}, {"measurement": "inhibition of AKT phosphorylation", "setting": "AKT", "result": "complete inhibition"}, {"measurement": "Inhibition (phosphorylation of AKT at Ser 473)", "setting": "AKT", "result": "++++ (++++ ≈ 100% inhibition)"}]}]}
